Like-named read-outs stand apart in the source and are kept apart here.

The term Ki denotes a dissociation constant, usually derived from enzyme kinetics or from competition with a known ligand. What is called IC50 is the midpoint of a concentration-inhibition curve. A word on the EC50: it is the concentration needed to bring the measured effect to its halfway point. The term Emax denotes the greatest response seen or fitted, relative to the assay's reference. For orientation: ED50 means the dose that gives a 50% effect, or the effect in half of the subjects.

Test [1] has as its target T1, DOR-1 (Mus musculus, UniProt P32300).
T1 construct: expressed in transfected cells; host or cells: CHO
The test can be described thus: Competition binding against 125I-IBNtxA in DOR-1/CHO membranes.

The target of test [2] is T1, DOR-1. The experiment in a line: [35S]GTPγS functional assay, DOR-1 transfected cell membranes. The class given is biochemical. As to conditions: antagonism of 100 nM DPDPE; read-out: DOR-1 IC50. Background: GTPγS resists hydrolysis and so accumulates on activated G proteins.
The next test deals with T2, KOR-1 (Mus musculus, UniProt P33534).
T2 construct: expressed in transfected cells; host or cells: CHO
The test can be described thus: Competition binding against 125I-IBNtxA in KOR-1/CHO membranes. The following applies: 125I-IBNtxA (0.1 nM), CHO membranes, cloned mouse receptor; read-out: Affinity (Ki nM) KOR-1.

Test [3] has as its target T3, MOR-1 (Mus musculus, UniProt P42866).
T3 construct: expressed in transfected cells; host or cells: CHO
The test can be described thus: Competition binding against 125I-IBNtxA in MOR-1/CHO membranes.

Test [4] deals with T3, MOR-1. The experiment in a line: [35S]GTPγS functional assay, MOR-1 transfected cell membranes. As to conditions: for EC50: agonist stimulation of [35S]GTPγS binding, read-out: MOR-1 EC50; for Emax: read-out: MOR-1 Emax (%). More on the design: Emax: dose or concentration left out as unconfirmed. The class given is biochemical.
The next test deals with CD1 mice. The experiment in a line: Radiant heat tail flick analgesia, sc, CD1 mice. As to conditions: Mus musculus, 0.25 h, ED50, cumulative dose-response, tail flick 15 min after sc dose. The test is classed as in vivo.
Setting [5] is: 125I-IBNtxA (0.1 nM), CHO membranes, cloned mouse receptor, read-out: Affinity (Ki nM) DOR-1.

`Oc1ccc2c3c1O[C@H]1c4[nH]c5ccccc5c4C[C@@]4(O)[C@@H](C2)N(CC2CC2)CC[C@]314` [NTI, Naltrindole, reference compound] gave a Ki at DOR-1 [1] of 0.46 nM. The half-maximal inhibitory concentration (IC50) at DOR-1 [2] came out at 0.72 nM.

`CC[C@@H]1CN2CC[C@@]3(C(=O)c4c(OC)cccc4N3C)C2C[C@@H]1/C(=C\OC)C(=O)OC` (stereo partly drawn) [VM1503, (E)-methyl 2-((1'S,6'S,7'S)-6′-ethyl-4-methoxy-1-methyl-3-oxo-3′,5′,6′,7′,8′,8a′-hexahydro-2′H-spiro[indoline-2,1′-indolizine]-7′-yl)-3-methoxyacrylate]: the values for the Ki on KOR-1, on DOR-1 [1] (setting [5]) and on MOR-1 [3] were more than 1000 nM, more than 1000 nM and 375 nM, respectively.

With `CC[C@@H]1CN2CC[C@@]3(C(=O)c4c(OC)cccc4N3Cc3ccccc3)C2C[C@@H]1/C(=C\OC)C(=O)OC` (stereo partly drawn) [VM1505, (E)-methyl 2-((1'S,6'S,7'S)-1-benzyl-6′-ethyl-4-methoxy-3-oxo-3′,5′,6′,7′,8′,8a′-hexahydro-2′H-spiro[indoline-2,1′-indolizine]-7′-yl)-3-methoxyacrylate], the inhibition constant (Ki) on KOR-1 is 136 nM; on DOR-1 [1] (setting [5]), 258 nM; at MOR-1 [3] it was 249 nM.

`CC[C@@H]1CN2CC[C@]3(Nc4cccc(O)c4C3=O)C2C[C@@H]1/C(=C\OC)C(=O)OC` (stereo partly drawn) [VM1507, (E)-methyl 2-((1'S,6'S,7'S)-6′-ethyl-4-hydroxy-3-oxo-3′,5′,6′,7′,8′,8a′-hexahydro-2′H-spiro[indoline-2,1′-indolizine]-7′-yl)-3-methoxyacrylate]: the results for the inhibition constant (Ki) on KOR-1, on DOR-1 [1] (setting [5]) and on MOR-1 [3] were 170 nM, 6.1 nM and 1.4 nM, respectively. Further, the EC50 at MOR-1 [4] worked out at 2 nM. Moreover, on MOR-1 [4], the maximal response (Emax) was 124%. On DOR-1 [2], the IC50 came out at 293 nM. For the same compound, in the test with CD1 mice, the ED50 came to 0.18 mg/kg.

Turning to `CC[C@@H]1CN2CC[C@]3(Nc4cccc(OC(C)=O)c4C3=O)C2C[C@@H]1/C(=C\OC)C(=O)OC` (stereo partly drawn) [VM1510, (E)-methyl 2-((1'S,6'S,7'S)-4-acetoxy-6′-ethyl-3-oxo-3′,5′,6′,7′,8′,8a′-hexahydro-2′H-spiro[indoline-2,1′-indolizine]-7′-yl)-3-methoxyacrylate], the Ki on KOR-1 was determined as 31 nM; on DOR-1 [1] (setting [5]) it was 20 nM; on MOR-1 [3], 2.5 nM. Also, the EC50 at MOR-1 [4] stood at 3.9 nM. In addition, the maximal response (Emax) at MOR-1 [4] came to 120%. Further, in the test with CD1 mice, the 50% effective dose (ED50) came to 0.38 mg/kg.

`CC[C@@H]1CN2CCC3(Nc4ccc(Cl)c(OC)c4C3=O)C2C[C@@H]1/C(=C\OC)C(=O)OC` (stereo partly drawn) [VM1516, Methyl (E)-2-((6'S,7'S)-5-chloro-6′-ethyl-4-methoxy-3-oxo-2′,3′,6′,7′,8′,8a′-hexahydro-5′H-spiro[indoline-2,1′-indolizin]-7′-yl)-3-methoxyacrylate]: the inhibitory constant (Ki) at KOR-1 came out at 12 nM; on DOR-1 [1] (setting [5]), 2.1 nM; at MOR-1 [3], 0.41 nM.

In the case of `CC[C@@H]1CN2CCc3c([nH]c4ccc(Br)c(OC)c34)C2C[C@@H]1/C(=C\OC)C(=O)OC` (stereo partly drawn) [VM1517, Methyl (E)-2-((2S,3S)-9-bromo-3-ethyl-8-methoxy-1,2,3,4,6,7,12,12b-octahydroindolo[2,3-a]quinolizin-2-yl)-3-methoxyacrylate], the inhibition constant (Ki) at KOR-1 is 195 nM; at DOR-1 [1] (setting [5]) it was 847 nM; at MOR-1 [3] it was 104 nM.

Take `CC[C@@H]1CN2CCc3c([nH]c4ccc(-c5ccoc5)c(OC)c34)C2C[C@@H]1/C(=C\OC)C(=O)OC` (stereo partly drawn) [VM1519, Methyl (E)-2-((2S,3S)-3-ethyl-9-(furan-3-yl)-8-methoxy-1,2,3,4,6,7,12,12b-octahydroindolo[2,3-a]quinolizin-2-yl)-3-methoxyacrylate]: the Ki at KOR-1 turned out to be 129 nM; at DOR-1 [1] (setting [5]), 653 nM; on MOR-1 [3], 281 nM.

Consider `CC[C@@H]1CN2CCc3c([nH]c4c(-c5ccoc5)ccc(OC)c34)C2C[C@@H]1/C(=C\OC)C(=O)OC` (stereo partly drawn) [VM1520, Methyl (E)-2-((2S,3S)-3-ethyl-11-(furan-3-yl)-8-methoxy-1,2,3,4,6,7,12,12b-octahydroindolo[2,3-a]quinolizin-2-yl)-3-methoxyacrylate], for which the inhibition constant Ki at KOR-1 was 185 nM; on DOR-1 [1] (setting [5]), 617 nM; at MOR-1 [3], 278 nM.

Turning to `CC[C@@H]1CN2CCc3c([nH]c4ccc(-c5ccccc5)c(OC)c34)C2C[C@@H]1/C(=C\OC)C(=O)OC` (stereo partly drawn) [VM1521, Methyl (E)-2-((2S,3S)-3-ethyl-9-(phenyl)-8-methoxy-1,2,3,4,6,7,12,12b-octahydroindolo[2,3-a]quinolizin-2-yl)-3-methoxyacrylate], the figures for the inhibitory constant (Ki) at KOR-1, on DOR-1 [1] (setting [5]) and at MOR-1 [3] were 204 nM, more than 1000 nM and 364 nM, respectively.

For `CC[C@@H]1CN2CC[C@@]3(O)C(=Nc4ccc(-c5ccoc5)c(OC)c43)C2C[C@@H]1/C(=C\OC)C(=O)OC` (stereo partly drawn) [VM1523, Methyl (E)-2-((2S,3S,7aS)-3-ethyl-9-(furan-3-yl)-7a-hydroxy-8-methoxy-1,2,3,4,6,7,7a,12b-octahydroindolo[2,3-a]quinolizin-2-yl)-3-methoxyacrylate], the inhibition constant (Ki) was 36 nM on KOR-1, 109 nM on DOR-1 [1] (setting [5]) and 36 nM on MOR-1 [3].

With `CC[C@@H]1CN2CC[C@@]3(O)C(=Nc4c(-c5ccoc5)ccc(OC)c43)C2C[C@@H]1/C(=C\OC)C(=O)OC` (stereo partly drawn) [VM1524, Methyl (E)-2-((2S,3S,7aS)-3-ethyl-11-(furan-3-yl)-7a-hydroxy-8-methoxy-1,2,3,4,6,7,7a,12b-octahydroindolo[2,3-a]quinolizin-2-yl)-3-methoxyacrylate], the results for the Ki on KOR-1, at DOR-1 [1] (setting [5]) and on MOR-1 [3] were 338 nM, more than 1000 nM and 117 nM, respectively.

For the compound `CC[C@@H]1CN2CC[C@@]3(N4CCCCC4)C(=Nc4cccc(OC)c43)[C@@H]2C[C@@H]1/C(=C\OC)C(=O)OC` [VM1526, Methyl (E)-2-((2S,3S,7aS,12bS)-3-ethyl-8-methoxy-7a-(piperidin-1-yl)-1,2,3,4,6,7,7a,12b-octahydroindolo[2,3-a]quinolizin-2-yl)-3-methoxyacrylate], the inhibition constant Ki on KOR-1 amounted to 72 nM; at DOR-1 [1] (setting [5]), 369 nM; on MOR-1 [3] it was 247 nM.

`COC(=O)CC1CCN2CC[C@@]3(O)C(=Nc4cccc(OC)c43)C2C1` (stereo partly drawn) [VM1531, Methyl 2-((7aS)-7a-hydroxy-8-methoxy-1,2,3,4,6,7,7a,12b-octahydroindolo[2,3-a]quinolizin-2-yl)acetate]: the Ki at KOR-1, at DOR-1 [1] (setting [5]) and on MOR-1 [3] was more than 1000 nM each time.

As for `CC[C@@H]1CN2CCc3c(n(Cc4ccccc4)c4cccc(OC)c34)[C@@H]2C[C@@H]1/C(=C\OC)C(=O)OC` [VM1533, Methyl (E)-2-((2S,3S,12bS)-12-benzyl-3-ethyl-8-methoxy-1,2,3,4,6,7,12,12b-octahydroindolo[2,3-a]quinolizin-2-yl)-3-methoxyacrylate], the values for the inhibitory constant (Ki) on KOR-1, on DOR-1 [1] (setting [5]) and at MOR-1 [3] were 395 nM, more than 1000 nM and 93 nM, respectively.

As for `CC[C@@H]1CN2CCc3c([nH]c4cccc(OC)c34)[C@@H]2C[C@@H]1/C(=C\OC)CO` [VM1534, (E)-2-((2S,3S,12bS)-3-ethyl-8-methoxy-1,2,3,4,6,7,12,12b-octahydroindolo[2,3-a]quinolizin-2-yl)-3-methoxyprop-2-en-1-ol], on MOR-1 [3], the inhibitory constant (Ki) was more than 1000 nM.

At MOR-1 [3], `C=C(COC)[C@H]1C[C@H]2c3[nH]c4cccc(OC)c4c3CCN2C[C@H]1CC` [VM1535, (2S,3S,12bS)-3-ethyl-8-methoxy-2-(3-methoxyprop-1-en-2-yl)-1,2,3,4,6,7,12,12b-octahydroindolo[2,3-a]quinolizine] registered a Ki of more than 1000 nM.

Turning to `CC[C@@H]1CN2CCc3c([nH]c4cccc(OC)c34)[C@@H]2C[C@@H]1[C@@H](C)COC` [VM1536, (2S,3S,12bS)-3-ethyl-8-methoxy-2-((R)-1-methoxypropan-2-yl)-1,2,3,4,6,7,12,12b-octahydroindolo[2,3-a]quinolizine], the Ki on MOR-1 [3] is more than 1000 nM.

`CC[C@@H]1CN2CC[C@@]3(OC)C(=Nc4cccc(OC)c43)[C@@H]2C[C@@H]1/C(=C\OC)C(=O)OC` [VM1537, Methyl (E)-2-((2S,3S,7aS,12bS)-3-ethyl-7a,8-dimethoxy-1,2,3,4,6,7,7a,12b-octahydroindolo[2,3-a]quinolizin-2-yl)-3-methoxyacrylate]: the inhibitory constant (Ki) at KOR-1 was found to be 90 nM; on DOR-1 [1] (setting [5]) it was 997 nM; at MOR-1 [3], 190 nM.

As for `CC[C@@H]1CN2CCc3c([nH]c4cccc(-c5ccoc5)c34)[C@@H]2C[C@@H]1/C(=C\OC)C(=O)OC` [VM1539], the inhibitory constant (Ki) on KOR-1 was found to be 14 nM; at DOR-1 [1] (setting [5]), 332 nM; at MOR-1 [3] (read-out: Affinity (Ki nM) MOR-1, 125I-IBNtxA (0.1 nM), CHO membranes, cloned mouse receptor), 52 nM.

As for `CC[C@@H]1CN2CCc3c(n(C)c4cccc(OC)c34)[C@@H]2C[C@@H]1/C(=C\OC)C(=O)OC` [VM1541, Methyl (E)-2-((2S,3S,12bS)-3-ethyl-8-methoxy-12-methyl-1,2,3,4,6,7,12,12b-octahydroindolo[2,3-a]quinolizin-2-yl)-3-methoxyacrylate], the Ki on KOR-1 is 143 nM; at DOR-1 [1] (setting [5]), more than 1000 nM; on MOR-1 [3] it was 163 nM.

Regarding `CC[C@@H]1CN2CCC3c4c(cccc4OC)NC3[C@@H]2C[C@@H]1/C(=C\OC)C(=O)OC` (stereo partly drawn) [VM1542, Methyl (E)-2-((2S,3S,12bS)-3-ethyl-8-methoxy-1,2,3,4,6,7,7a,12,12a,12b-decahydroindolo[2,3-a]quinolizin-2-yl)-3-methoxyacrylate], the Ki was determined as 329 nM on KOR-1, 374 nM on DOR-1 [1] (setting [5]) and 116 nM on MOR-1 [3].

Values taken from patent publication US12617790B2, “Mitragynine analogs and uses thereof” (Memorial Sloan-Kettering Cancer Center, priority 2015, dated 2026).
